The text below walks through data of ChEMBL document CHEMBL3091331, “Aminothiazole-featured pirinixic acid derivatives as dual 5-lipoxygenase and microsomal prostaglandin E2 synthase-1 inhibitors with improved potency and efficiency in vivo” (J Med Chem, 2013).

pIC50: −log10 of the molar value. Active and inactive are the calls of the source. No cut-off for these calls is given here.

The subject of assay [1] is Mus musculus. Description: Antiinflammatory activity in CD-1 mouse peritonitis model assessed as reduction in myeloperoxidase activity at 10 mg/kg, ip administered 30 mins prior to zymosan-challenge measured after 4 hrs by spectrophotometry relative to vehicle-treated control. It is filed as functional. As to conditions: CD-1, ip, route intraperitoneal.
For assay [2], the system named is Mus musculus. Description: Antiinflammatory activity in CD-1 mouse peritonitis model assessed as reduction in neutrophil infiltration at 10 mg/kg, ip administered 30 mins prior to zymosan-challenge measured after 4 hrs by spectrophotometry relative to vehicle-treated control. It is filed as functional. As to conditions: CD-1, ip, route intraperitoneal.
Assay [3] deals with Mus musculus. In words: Reduction of PGE2 biosynthesis in CD-1 mouse peritonitis model at 10 mg/kg, ip administered 30 mins prior to zymosan-challenge measured after 4 hrs by RIA relative to vehicle-treated control. It is filed as functional. The following applies: CD-1, ip, route intraperitoneal.
For assay [4], the system named is Mus musculus. In words: Reduction of LTC4 formation in CD-1 mouse peritonitis model at 10 mg/kg, ip administered 30 mins prior to zymosan-challenge measured after 30 mins by EIA relative to vehicle-treated control. As to conditions: CD-1, ip, route intraperitoneal. The class given is functional.
Assay [5] deals with MAP kinase p38 (Homo sapiens) (UniProt O15264+Q15759+Q16539+P53778). In words: Inhibition of fMLP-mediated p38 MAPK phosphorylation in human polymorphonuclear leukocytes incubated for 15 mins prior to fMLP-challenge measured after 1.5 mins by SDS-PAGE analysis. The class given is cell-based.
For assay [6], the target named is Mitogen-activated protein kinase 1 (Homo sapiens) (UniProt P28482). In words: Inhibition of fMLP-mediated ERK2 phosphorylation in human polymorphonuclear leukocytes incubated for 15 mins prior to fMLP-challenge measured after 1.5 mins by SDS-PAGE analysis. The class given is cell-based.
Mitogen-activated protein kinase 1 (Homo sapiens), sequence (P28482 whole entry): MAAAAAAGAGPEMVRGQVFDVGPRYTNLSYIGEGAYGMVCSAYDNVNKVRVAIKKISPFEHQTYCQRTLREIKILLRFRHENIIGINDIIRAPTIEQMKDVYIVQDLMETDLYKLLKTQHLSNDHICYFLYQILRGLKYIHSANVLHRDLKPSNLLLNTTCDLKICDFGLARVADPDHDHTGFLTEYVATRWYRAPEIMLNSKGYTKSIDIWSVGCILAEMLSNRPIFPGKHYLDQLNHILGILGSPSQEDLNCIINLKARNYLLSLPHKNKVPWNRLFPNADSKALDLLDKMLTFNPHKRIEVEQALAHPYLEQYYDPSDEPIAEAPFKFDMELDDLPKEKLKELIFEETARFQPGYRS
Assay [7] in a line: (§1) Inhibition of reactive oxygen species generation in fMLP-stimulated human polymorphonuclear leukocytes incubated for 15 mins prior to fMLP-challenge by fluorescence assay. The class given is functional.
The species entered for assay [8] is Homo sapiens. Described as §1. The class given is functional.
Assay [9] relates to Radical scavenging activity. Description: Antioxidant activity assessed as DPPH radical scavenging activity at 10 uM after 30 mins. It is filed as functional. On the technique in general: DPPH is a stable violet radical that fades when it is reduced.
Assay [10] deals with T1, Prostaglandin G/H synthase 1 (Ovis aries) (UniProt P05979).
T1 sequence (whole entry): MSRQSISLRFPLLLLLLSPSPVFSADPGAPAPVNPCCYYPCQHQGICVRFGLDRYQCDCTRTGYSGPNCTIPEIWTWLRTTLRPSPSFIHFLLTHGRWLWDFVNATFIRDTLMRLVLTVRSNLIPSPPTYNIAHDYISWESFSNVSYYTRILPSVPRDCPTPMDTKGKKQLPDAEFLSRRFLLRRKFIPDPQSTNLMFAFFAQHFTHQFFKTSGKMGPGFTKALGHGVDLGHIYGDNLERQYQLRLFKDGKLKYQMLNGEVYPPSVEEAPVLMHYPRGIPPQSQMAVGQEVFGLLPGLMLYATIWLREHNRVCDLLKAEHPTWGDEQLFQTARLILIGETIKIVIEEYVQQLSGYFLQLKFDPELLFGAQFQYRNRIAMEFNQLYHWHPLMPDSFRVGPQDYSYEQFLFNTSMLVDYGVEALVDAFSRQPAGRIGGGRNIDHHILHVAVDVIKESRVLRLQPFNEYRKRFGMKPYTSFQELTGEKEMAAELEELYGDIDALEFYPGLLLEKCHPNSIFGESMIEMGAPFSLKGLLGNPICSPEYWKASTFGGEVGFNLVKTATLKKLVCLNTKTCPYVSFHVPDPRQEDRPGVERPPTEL
In words: Inhibition of ovine COX1 using arachidonic acid as substrate at 10 uM incubated 5 mins prior to substrate addition measured after 5 mins by HPLC analysis.

Assay [11] deals with T2, Prostaglandin E synthase (Homo sapiens, UniProt O14684).
T2 sequence (O14684 whole entry): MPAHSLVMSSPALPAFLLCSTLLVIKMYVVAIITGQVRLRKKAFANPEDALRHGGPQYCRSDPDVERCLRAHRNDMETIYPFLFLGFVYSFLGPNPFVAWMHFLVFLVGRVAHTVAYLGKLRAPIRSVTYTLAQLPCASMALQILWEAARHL
In words: Inhibition of mPGES-1 from human A549 cell microsomal membranes using PGH2 as substrate incubated 15 mins prior to substrate addition measured after 1 min by RP-HPLC analysis.

For assay [12], the target named is T3, Polyunsaturated fatty acid 5-lipoxygenase (Homo sapiens, UniProt P09917).
T3 sequence (P09917 whole entry): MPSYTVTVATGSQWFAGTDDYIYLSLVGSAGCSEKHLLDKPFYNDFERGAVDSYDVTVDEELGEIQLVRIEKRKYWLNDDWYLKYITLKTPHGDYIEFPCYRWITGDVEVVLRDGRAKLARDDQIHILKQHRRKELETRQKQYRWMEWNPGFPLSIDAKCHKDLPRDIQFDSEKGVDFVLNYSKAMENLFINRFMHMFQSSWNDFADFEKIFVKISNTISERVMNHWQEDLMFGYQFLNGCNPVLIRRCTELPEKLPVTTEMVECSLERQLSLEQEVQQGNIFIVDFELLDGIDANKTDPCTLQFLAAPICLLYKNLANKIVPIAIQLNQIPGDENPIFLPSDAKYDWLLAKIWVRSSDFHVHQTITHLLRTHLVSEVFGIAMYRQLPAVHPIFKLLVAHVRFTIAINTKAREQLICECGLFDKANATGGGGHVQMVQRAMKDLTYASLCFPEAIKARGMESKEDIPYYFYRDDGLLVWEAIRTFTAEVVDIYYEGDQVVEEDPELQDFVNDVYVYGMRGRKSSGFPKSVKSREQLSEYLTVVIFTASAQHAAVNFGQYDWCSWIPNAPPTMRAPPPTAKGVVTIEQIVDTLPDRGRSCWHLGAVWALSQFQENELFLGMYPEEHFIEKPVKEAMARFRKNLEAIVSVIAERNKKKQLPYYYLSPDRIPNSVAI
In words: Inhibition of human recombinant 5-lipoxygenase expressed in Escherichia coli BL21 using arachidonic acid as substrate incubated 5 to 10 mins prior to substrate addition measured after 10 mins by HPLC analysis.

Assay [13] has as its target T3, Polyunsaturated fatty acid 5-lipoxygenase. In words: Inhibition of 5-lipoxygenase in A23187-stimulated human polymorphonuclear leukocytes using arachidonic acid as substrate incubated 15 mins prior to substrate addition measured after 10 mins by HPLC analysis.

As usually defined, the inhibition in vivo is how much of the control response was suppressed. The inhibition is the drop in the measured response relative to a control, in per cent. What is called pIC50 is the negative decadic logarithm of the IC50, by convention in mol/L. On to `CCCCCCC(Sc1nc(Cl)cc(Nc2nc(-c3ccc4ccccc4c3)cs2)n1)C(=O)O` (racemic), for which the inhibition in vivo at 10 mg/kg in assay [1] came out at 23%; in [2], 45%; in assay [3] it was 46%; in assay [4] it was 84%. Moreover, the inhibition result in [5] and in assay [6] was “inactive” in each case. Further, the pIC50 is 5.52 in assay [7], 6.40 in [11], 6.52 in assay [12] and 6.70 in [13]. In addition, the inhibition result is “Dose-dependent effect” in assay [8] and 39% in assay [10]. The result in assay [9] was inactive.
